Data published in US20260327221A1, “INHIBITORS OF CYCLIC GMP-AMP SYNTHASE AND USES THEREOF” (Ventus Therapeutics U.S., Inc., priority 2023, published 2026).

Biological target: hcGAS (Homo sapiens, UniProt Q8N884)
Assay: hcGAS LCMS assay (direct measurement of cGAMP production by LC/MS)
Assay type: biochemical
Conditions: 4 h incubation with enzyme and substrates; cGAMP production by LC/MS; class symbols; read-out: hcGAS LCMS IC50
Procedure, shortened: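 Enzyme, substrates (ATP, GTP) and compound incubated 4 h, then quenched with acetonitrile/water containing 0.15 uM 13C/15N-labeled cGAMP internal standard. cGAMP formed quantified directly by LC/MS on HILIC amide column; IC50 values reported in potency bins.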

hcGAS, sequence (Q8N884 whole entry): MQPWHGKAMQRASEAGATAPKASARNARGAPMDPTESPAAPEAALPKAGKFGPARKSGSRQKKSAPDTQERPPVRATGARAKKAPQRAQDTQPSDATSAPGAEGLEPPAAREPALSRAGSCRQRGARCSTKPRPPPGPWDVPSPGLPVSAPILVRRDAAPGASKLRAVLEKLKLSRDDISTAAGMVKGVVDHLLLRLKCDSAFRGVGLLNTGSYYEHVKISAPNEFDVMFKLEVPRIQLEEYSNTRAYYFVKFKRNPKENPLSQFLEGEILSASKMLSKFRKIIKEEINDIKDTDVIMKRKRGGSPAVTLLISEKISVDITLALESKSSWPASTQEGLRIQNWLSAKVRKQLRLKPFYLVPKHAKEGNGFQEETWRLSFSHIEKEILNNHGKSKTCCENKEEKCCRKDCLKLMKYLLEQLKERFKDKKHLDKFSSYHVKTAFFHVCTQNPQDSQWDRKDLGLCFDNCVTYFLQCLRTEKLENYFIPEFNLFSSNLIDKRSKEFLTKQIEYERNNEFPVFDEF

Row | Compound | IC50 [nM]
1 | COCCOc1c(-c2c(C#N)cccc2OC(F)F)cc(C(=O)Nc2nnc(-n3nccc3N)s2)oc1=O [Compound 74, N-(5-(5-amino-1H-pyrazol-1-yl)-1,3,4-thiadiazol-2-yl)-4-(2-cyano-6-(difluoromethoxy)phenyl)-3-(2-methoxyethoxy)-2-oxo-2H-pyran-6-carboxamide] | 0.5 to 1
2 | COc1cccc(OC)c1-c1cc(C(=O)Nc2nnc(-n3nccc3N)s2)oc(=O)c1OCCN1CCSCC1=O [Compound 75, N-(5-(5-amino-1H-pyrazol-1-yl)-1,3,4-thiadiazol-2-yl)-4-(2,6-dimethoxyphenyl)-2-oxo-3-(2-(3-oxothiomorpholino)ethoxy)-2H-pyran-6-carboxamide] | 0.5 to 1
3 | COc1cccc(OC)c1-c1cc(C(=O)Nc2nnc(-n3nccc3N)s2)oc(=O)c1OCCCN1CCSCC1 [Compound 88, N-(5-(5-amino-1H-pyrazol-1-yl)-1,3,4-thiadiazol-2-yl)-4-(2,6-dimethoxyphenyl)-2-oxo-3-(3-thiomorpholinopropoxy)-2H-pyran-6-carboxamide] | 0.5 to 1
4 | COc1cccc(OC)c1-c1cc(C(=O)Nc2nnc(-n3nccc3N)s2)oc(=O)c1OCCN1CCCSCC1 [Compound 89, 3-(2-(1,4-thiazepan-4-yl)ethoxy)-N-(5-(5-amino-1H-pyrazol-1-yl)-1,3,4-thiadiazol-2-yl)-4-(2,6-dimethoxyphenyl)-2-oxo-2H-pyran-6-carboxamide] | 0.5 to 1
5 | COc1cccc(OC)c1-c1cc(C(=O)Nc2nnc(-n3nccc3N)s2)oc(=O)c1OCC(=O)N1CCSCC1 [Compound 90, N-(5-(5-amino-1H-pyrazol-1-yl)-1,3,4-thiadiazol-2-yl)-4-(2,6-dimethoxyphenyl)-2-oxo-3-(2-oxo-2-thiomorpholinoethoxy)-2H-pyran-6-carboxamide] | < 0.5
6 | COc1cccc(OC)c1-c1cc(C(=O)Nc2nnc(-n3nccc3N)s2)oc(=O)c1OCCN1C2CSCC1C2 [Compound 94, 3-(2-(3-thia-6-azabicyclo[3.1.1]heptan-6-yl)ethoxy)-N-(5-(5-amino-1H-pyrazol-1-yl)-1,3,4-thiadiazol-2-yl)-4-(2,6-dimethoxyphenyl)-2-oxo-2H-pyran-6-carboxamide] | 0.5 to 1

The next lines start with the values.

Row | IC50 [nM] | Compound
7 | 1 to 5 | COc1cccnc1-c1cc(C(=O)Nc2nnc(-n3nccc3N)s2)oc(=O)c1O[C@@H](C)CO [Compound 107A, (S)—N-(5-(5-amino-1H-pyrazol-1-yl)-1,3,4-thiadiazol-2-yl)-3-((1-hydroxypropan-2-yl)oxy)-4-(3-methoxypyridin-2-yl)-2-oxo-2H-pyran-6-carboxamide]
8 | 0.5 to 1 | COc1cccnc1-c1cc(C(=O)Nc2nnc(-n3nccc3N)s2)oc(=O)c1O[C@H](C)CO [Compound 107B, (R)-N-(5-(5-amino-1H-pyrazol-1-yl)-1,3,4-thiadiazol-2-yl)-3-((1-hydroxypropan-2-yl)oxy)-4-(3-methoxypyridin-2-yl)-2-oxo-2H-pyran-6-carboxamide]
9 | < 0.5 | COc1cccc(OC)c1-c1cc(C(=O)Nc2nnc(-n3nccc3N)s2)oc(=O)c1O[C@H]1CC[C@H](O)CC1 [Compound 108A, N-(5-(5-amino-1H-pyrazol-1-yl)-1,3,4-thiadiazol-2-yl)-4-(2,6-dimethoxyphenyl)-3-(((1r,4r)-4-hydroxycyclohexyl)oxy)-2-oxo-2H-pyran-6-carboxamide]
10 | 1 to 5 | COc1cccc(OC)c1-c1cc(C(=O)Nc2nnc(-n3nccc3N)s2)oc(=O)c1O[C@H]1CC[C@@H](O)CC1 [Compound 108B, N-(5-(5-amino-1H-pyrazol-1-yl)-1,3,4-thiadiazol-2-yl)-4-(2,6-dimethoxyphenyl)-3-(((1s,4s)-4-hydroxycyclohexyl)oxy)-2-oxo-2H-pyran-6-carboxamide]
